ChEMBL document CHEMBL3044821, “Microwave-induced CAN promoted atom-economic synthesis of 1H-benzo[b]xanthene and 4H-benzo[g]chromene derivatives of N-allyl quinolone and their antimicrobial activity” (2013)
≈ marks a conversion by molar mass, not a printed value.

Legend:
Type in all cases: functional
Streptococcus pyogenes = test: Antibacterial activity against Streptococcus pyogenes MTCC 442 assessed as growth inhibition after 24 to 48 hr by NCCLS broth microdilution method
Escherichia coli = test: Antibacterial activity against Escherichia coli MTCC 443 assessed as growth inhibition after 24 to 48 hr by NCCLS broth microdilution method
Pseudomonas aeruginosa = test: Antibacterial activity against Pseudomonas aeruginosa MTCC 1688 assessed as growth inhibition after 24 to 48 hr by NCCLS broth microdilution method
Staphylococcus aureus = test: Antibacterial activity against Staphylococcus aureus MTCC 96 assessed as growth inhibition after 24 to 48 hr by NCCLS broth microdilution method
Aspergillus niger = test: Antifungal activity against Aspergillus niger MTCC 282 assessed as growth inhibition after 24 to 48 hr by NCCLS broth microdilution method
Candida albicans = test: Antifungal activity against Candida albicans MTCC 227 assessed as growth inhibition after 24 to 48 hr by NCCLS broth microdilution method
Aspergillus clavatus = test: Antifungal activity against Aspergillus clavatus MTCC 1323 assessed as growth inhibition after 24 to 48 hr by NCCLS broth microdilution method

## O=C(N[C@H](CO)[C@H](O)c1ccc([N+](=O)[O-])cc1)C(Cl)Cl [CHLORAMPHENICOL]
Streptococcus pyogenes
  MIC: 50 µg/mL (≈ 155 µM)
Escherichia coli
  MIC: 50 µg/mL (≈ 155 µM)
Pseudomonas aeruginosa
  MIC: 50 µg/mL (≈ 155 µM)
Staphylococcus aureus
  MIC: 50 µg/mL (≈ 155 µM)

## CC1(C)S[C@@H]2[C@H](NC(=O)[C@H](N)c3ccccc3)C(=O)N2[C@H]1C(=O)O [AMPICILLIN]
Streptococcus pyogenes
  MIC: 100 µg/mL (≈ 286 µM)
Escherichia coli
  MIC: 100 µg/mL (≈ 286 µM)
Staphylococcus aureus
  MIC: 250 µg/mL (≈ 715 µM)

## C=CCn1c(=O)c(C2C(C(=O)OC(C)C)=C(N)OC3=C2C(=O)c2ccccc2C3=O)cc2cc(Cl)ccc21 (stereo not drawn)
Streptococcus pyogenes
  MIC: 500 µg/mL (≈ 942 µM)
Escherichia coli
  MIC: 200 µg/mL (≈ 377 µM)
Aspergillus niger
  MIC: 100 µg/mL (≈ 188 µM)
Pseudomonas aeruginosa
  MIC: 100 µg/mL (≈ 188 µM)
Candida albicans
  MIC: 500 µg/mL (≈ 942 µM)
Aspergillus clavatus
  MIC: 250 µg/mL (≈ 471 µM)
Staphylococcus aureus
  MIC: 500 µg/mL (≈ 942 µM)

## C=CCn1c(=O)c(C2C(C#N)=C(N)OC3=C2C(=O)c2ccccc2C3=O)cc2ccccc21 (stereo not drawn)
Streptococcus pyogenes
  MIC: 250 µg/mL (≈ 574 µM)
Escherichia coli
  MIC: 100 µg/mL (≈ 230 µM)
Aspergillus niger
  MIC: 500 µg/mL (≈ 1150 µM)
Pseudomonas aeruginosa
  MIC: 250 µg/mL (≈ 574 µM)
Candida albicans
  MIC: 250 µg/mL (≈ 574 µM)
Aspergillus clavatus
  MIC: > 1000 µg/mL
Staphylococcus aureus
  MIC: 62.5 µg/mL (≈ 144 µM)

## NYSTATIN
Aspergillus niger
  MIC: 100 µg/mL
Candida albicans
  MIC: 100 µg/mL
Aspergillus clavatus
  MIC: 100 µg/mL

## C=CCn1c(=O)c(C2C(C#N)=C(N)OC3=C2C(=O)c2ccccc2C3=O)cc2cc(Cl)ccc21 (stereo not drawn)
Streptococcus pyogenes
  MIC: 100 µg/mL (≈ 213 µM)
Escherichia coli
  MIC: 200 µg/mL (≈ 426 µM)
Aspergillus niger
  MIC: 1000 µg/mL (≈ 2130 µM)
Pseudomonas aeruginosa
  MIC: 500 µg/mL (≈ 1060 µM)
Candida albicans
  MIC: 500 µg/mL (≈ 1060 µM)
Aspergillus clavatus
  MIC: 100 µg/mL (≈ 213 µM)
Staphylococcus aureus
  MIC: 500 µg/mL (≈ 1060 µM)

## C=CCn1c(=O)c(C2C3=C(CCCC3=O)OC3=C2C(=O)c2ccccc2C3=O)cc2cc(C)ccc21 (stereo not drawn)
Streptococcus pyogenes
  MIC: 250 µg/mL (≈ 524 µM)
Escherichia coli
  MIC: 500 µg/mL (≈ 1050 µM)
Aspergillus niger
  MIC: 1000 µg/mL (≈ 2090 µM)
Pseudomonas aeruginosa
  MIC: 250 µg/mL (≈ 524 µM)
Candida albicans
  MIC: 500 µg/mL (≈ 1050 µM)
Aspergillus clavatus
  MIC: 1000 µg/mL (≈ 2090 µM)
Staphylococcus aureus
  MIC: 250 µg/mL (≈ 524 µM)

## C=CCn1c(=O)c(C2C(C#N)=C(N)OC3=C2C(=O)c2ccccc2C3=O)cc2cc(C)ccc21 (stereo not drawn)
Streptococcus pyogenes
  MIC: 100 µg/mL (≈ 222 µM)
Escherichia coli
  MIC: 250 µg/mL (≈ 556 µM)
Aspergillus niger
  MIC: 500 µg/mL (≈ 1110 µM)
Pseudomonas aeruginosa
  MIC: 500 µg/mL (≈ 1110 µM)
Candida albicans
  MIC: 1000 µg/mL (≈ 2220 µM)
Aspergillus clavatus
  MIC: 1000 µg/mL (≈ 2220 µM)
Staphylococcus aureus
  MIC: 200 µg/mL (≈ 445 µM)

## C=CCn1c(=O)c(C2C(C(=O)OC(C)C)=C(N)OC3=C2C(=O)c2ccccc2C3=O)cc2ccccc21 (stereo not drawn)
Streptococcus pyogenes
  MIC: 250 µg/mL (≈ 504 µM)
Escherichia coli
  MIC: 200 µg/mL (≈ 403 µM)
Aspergillus niger
  MIC: 250 µg/mL (≈ 504 µM)
Pseudomonas aeruginosa
  MIC: 50 µg/mL (≈ 101 µM)
Candida albicans
  MIC: 500 µg/mL (≈ 1010 µM)
Aspergillus clavatus
  MIC: > 1000 µg/mL
Staphylococcus aureus
  MIC: 500 µg/mL (≈ 1010 µM)

## C=CCn1c(=O)c(C2C(C#N)=C(N)OC3=C2C(=O)c2ccccc2C3=O)cc2cc(OC)ccc21 (stereo not drawn)
Streptococcus pyogenes
  MIC: 200 µg/mL (≈ 430 µM)
Escherichia coli
  MIC: 125 µg/mL (≈ 269 µM)
Aspergillus niger
  MIC: > 1000 µg/mL
Pseudomonas aeruginosa
  MIC: 200 µg/mL (≈ 430 µM)
Candida albicans
  MIC: 1000 µg/mL (≈ 2150 µM)
Aspergillus clavatus
  MIC: 1000 µg/mL (≈ 2150 µM)
Staphylococcus aureus
  MIC: 250 µg/mL (≈ 537 µM)

## C=CCn1c(=O)c(C2C(C(=O)OC(C)C)=C(N)OC3=C2C(=O)c2ccccc2C3=O)cc2cc(OC)ccc21 (stereo not drawn)
Streptococcus pyogenes
  MIC: 200 µg/mL (≈ 380 µM)
Escherichia coli
  MIC: 250 µg/mL (≈ 475 µM)
Aspergillus niger
  MIC: 500 µg/mL (≈ 950 µM)
Pseudomonas aeruginosa
  MIC: 200 µg/mL (≈ 380 µM)
Candida albicans
  MIC: 1000 µg/mL (≈ 1900 µM)
Aspergillus clavatus
  MIC: 500 µg/mL (≈ 950 µM)
Staphylococcus aureus
  MIC: 100 µg/mL (≈ 190 µM)

## COC1=CC(=O)C[C@@H](C)[C@]12Oc1c(Cl)c(OC)cc(OC)c1C2=O [GRISEOFULVIN]
Aspergillus niger
  MIC: 100 µg/mL (≈ 283 µM)
Candida albicans
  MIC: 500 µg/mL (≈ 1420 µM)
Aspergillus clavatus
  MIC: 100 µg/mL (≈ 283 µM)

## C=CCn1c(=O)c(C2C(C(=O)OC(C)C)=C(N)OC3=C2C(=O)c2ccccc2C3=O)cc2cc(C)ccc21 (stereo not drawn)
Streptococcus pyogenes
  MIC: 500 µg/mL (≈ 979 µM)
Escherichia coli
  MIC: 25 µg/mL (≈ 49 µM)
Aspergillus niger
  MIC: 1000 µg/mL (≈ 1960 µM)
Pseudomonas aeruginosa
  MIC: 250 µg/mL (≈ 490 µM)
Candida albicans
  MIC: > 1000 µg/mL
Aspergillus clavatus
  MIC: 500 µg/mL (≈ 979 µM)
Staphylococcus aureus
  MIC: 125 µg/mL (≈ 245 µM)

## C=CCn1c(=O)c(C2C3=C(CC(C)(C)CC3=O)OC3=C2C(=O)c2ccccc2C3=O)cc2cc(OC)ccc21 (stereo not drawn)
Streptococcus pyogenes
  MIC: 250 µg/mL (≈ 479 µM)
Escherichia coli
  MIC: 125 µg/mL (≈ 240 µM)
Aspergillus niger
  MIC: 500 µg/mL (≈ 959 µM)
Pseudomonas aeruginosa
  MIC: 100 µg/mL (≈ 192 µM)
Candida albicans
  MIC: 1000 µg/mL (≈ 1920 µM)
Aspergillus clavatus
  MIC: 500 µg/mL (≈ 959 µM)
Staphylococcus aureus
  MIC: 500 µg/mL (≈ 959 µM)

## C=CCn1c(=O)c(C2C3=C(CC(C)(C)CC3=O)OC3=C2C(=O)c2ccccc2C3=O)cc2cc(C)ccc21 (stereo not drawn)
Streptococcus pyogenes
  MIC: 250 µg/mL (≈ 494 µM)
Escherichia coli
  MIC: 62.5 µg/mL (≈ 124 µM)
Aspergillus niger
  MIC: 125 µg/mL (≈ 247 µM)
Pseudomonas aeruginosa
  MIC: 500 µg/mL (≈ 989 µM)
Candida albicans
  MIC: > 1000 µg/mL
Aspergillus clavatus
  MIC: 1000 µg/mL (≈ 1980 µM)
Staphylococcus aureus
  MIC: 500 µg/mL (≈ 989 µM)

## C=CCn1c(=O)c(C2C3=C(CC(C)(C)CC3=O)OC3=C2C(=O)c2ccccc2C3=O)cc2ccccc21 (stereo not drawn)
Streptococcus pyogenes
  MIC: 200 µg/mL (≈ 407 µM)
Escherichia coli
  MIC: 100 µg/mL (≈ 203 µM)
Aspergillus niger
  MIC: > 1000 µg/mL
Pseudomonas aeruginosa
  MIC: 100 µg/mL (≈ 203 µM)
Candida albicans
  MIC: > 1000 µg/mL
Aspergillus clavatus
  MIC: > 1000 µg/mL
Staphylococcus aureus
  MIC: 250 µg/mL (≈ 509 µM)

## C=CCn1c(=O)c(C2C3=C(CCCC3=O)OC3=C2C(=O)c2ccccc2C3=O)cc2cc(OC)ccc21 (stereo not drawn)
Streptococcus pyogenes
  MIC: 500 µg/mL (≈ 1010 µM)
Escherichia coli
  MIC: 250 µg/mL (≈ 507 µM)
Aspergillus niger
  MIC: 100 µg/mL (≈ 203 µM)
Pseudomonas aeruginosa
  MIC: 20 µg/mL (≈ 40.5 µM)
Candida albicans
  MIC: 1000 µg/mL (≈ 2030 µM)
Aspergillus clavatus
  MIC: 1000 µg/mL (≈ 2030 µM)
Staphylococcus aureus
  MIC: 500 µg/mL (≈ 1010 µM)

## C=CCn1c(=O)c(C2C3=C(CCCC3=O)OC3=C2C(=O)c2ccccc2C3=O)cc2ccccc21 (stereo not drawn)
Streptococcus pyogenes
  MIC: 125 µg/mL (≈ 270 µM)
Escherichia coli
  MIC: 200 µg/mL (≈ 432 µM)
Aspergillus niger
  MIC: 500 µg/mL (≈ 1080 µM)
Pseudomonas aeruginosa
  MIC: 250 µg/mL (≈ 539 µM)
Candida albicans
  MIC: 250 µg/mL (≈ 539 µM)
Aspergillus clavatus
  MIC: 500 µg/mL (≈ 1080 µM)
Staphylococcus aureus
  MIC: 200 µg/mL (≈ 432 µM)

## O=C(O)c1cn(C2CC2)c2cc(N3CCNCC3)c(F)cc2c1=O [CIPROFLOXACIN]
Streptococcus pyogenes
  MIC: 50 µg/mL (≈ 151 µM)
Escherichia coli
  MIC: 25 µg/mL (≈ 75.4 µM)
Staphylococcus aureus
  MIC: 50 µg/mL (≈ 151 µM)

## C=CCn1c(=O)c(C2C3=C(CC(C)(C)CC3=O)OC3=C2C(=O)c2ccccc2C3=O)cc2cc(Cl)ccc21 (stereo not drawn)
Streptococcus pyogenes
  MIC: 500 µg/mL (≈ 951 µM)
Escherichia coli
  MIC: 200 µg/mL (≈ 380 µM)
Aspergillus niger
  MIC: 1000 µg/mL (≈ 1900 µM)
Pseudomonas aeruginosa
  MIC: 250 µg/mL (≈ 475 µM)
Candida albicans
  MIC: > 1000 µg/mL
Aspergillus clavatus
  MIC: 100 µg/mL (≈ 190 µM)
Staphylococcus aureus
  MIC: 200 µg/mL (≈ 380 µM)

## C=CCn1c(=O)c(C2C3=C(CCCC3=O)OC3=C2C(=O)c2ccccc2C3=O)cc2cc(Cl)ccc21 (stereo not drawn)
Streptococcus pyogenes
  MIC: 50 µg/mL (≈ 100 µM)
Escherichia coli
  MIC: 250 µg/mL (≈ 502 µM)
Aspergillus niger
  MIC: 1000 µg/mL (≈ 2010 µM)
Pseudomonas aeruginosa
  MIC: 62.5 µg/mL (≈ 126 µM)
Candida albicans
  MIC: 500 µg/mL (≈ 1000 µM)
Aspergillus clavatus
  MIC: 100 µg/mL (≈ 201 µM)
Staphylococcus aureus
  MIC: 500 µg/mL (≈ 1000 µM)
